According to EP0355353A2, “Cycloalkylthiazole derivatives” (F. HOFFMANN-LA ROCHE AG, priority 1988, dated 1990):

Columns and labels:
Leukotriene D₄ Receptor = target: T1, Leukotriene D₄ Receptor (Cavia porcellus, UniProt Q2NNR5); test: Leukotriene D₄ Receptor Binding Assay (Guinea Pig Lung Homogenate), displacement of ³H-LTD₄; details: guinea pig lung membrane homogenate, 3.5 nM ³H-LTD₄, 20°C, 30 minutes; read-out: LTD₄ Binding IC₅₀
T1 construct: from tissue; host or cells: guinea pig lung crude membrane fraction
T1 sequence (Q2NNR5 1-340): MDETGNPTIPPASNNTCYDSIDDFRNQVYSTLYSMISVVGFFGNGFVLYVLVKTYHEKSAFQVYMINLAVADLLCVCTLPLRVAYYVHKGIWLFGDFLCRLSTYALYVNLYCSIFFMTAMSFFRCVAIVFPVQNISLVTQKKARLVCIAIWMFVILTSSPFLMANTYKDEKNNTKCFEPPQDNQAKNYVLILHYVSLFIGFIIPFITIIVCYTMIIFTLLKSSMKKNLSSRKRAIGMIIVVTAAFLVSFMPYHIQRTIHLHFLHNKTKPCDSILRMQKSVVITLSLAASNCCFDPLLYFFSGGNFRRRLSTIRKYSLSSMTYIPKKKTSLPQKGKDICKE
Description: Leukotriene D₄ Receptor Binding Assay (Guinea Pig Lung Homogenate) […]
a) Preparation of membrane homogenate
Male albino guinea pigs (Hartley strain, 400-500 g body weight) were sacrificed by decapitation. The lungs were removed, frozen in liquid nitrogen and stored at -70° until use. The frozen tissue (5 g) was thawed, minced into small pieces and rinsed in phosphate-buffered saline. The tissue was placed in 40 ml homogenization buffer containing 0.25 M sucrose, 10 mM Tris-HCl, (pH 7.5), and the following protease inhibitors: soybean trypsin inhibitor (5 µg/ml) bacitracin (100 µg/ml), benzamidine (10⁻³M) and phenylmethylsulfonyl fluoride ([…]). The protease inhibitors were included to inhibit proteolysis during the processes of homogenization and centrifugation. The tissue was then homogenized at 0-4°C with a Brinkman PT-20 polytron for a total of 1 minute (10 second pulses at a setting of 6). The homogenate was centrifuged (1000 x g for 10 minutes) to remove tissue clumps, unbroken cells and nuclei. The supernatant was recentrifuged at 30,000 x g for 30 minutes to yield pellets which were referred to as crude membrane fractions. This fraction was then resuspended in the incubation buffer (10 mM Pipes buffer, pH 7.5, 50 mM NaCl), homogenized in a Teflon homogenizer and recentrifuged at 30,000 x g for 30 minutes. The pellets were finally resuspended in the incubation buffer with a Teflon homogenizer at a concentration of 10 to 20 mg/ml of protein in the suspension. The concentrations of proteins were determined using the Biorad reaction kit. […]
b) Receptor-Ligand Binding Assay
Optimum assay conditions were determined with an assay mixture containing: Tyrode solution; 0.1% bovine serum albumin (BSA); 1 mM glycine; 1 mM cysteine; 3.5 nM ³H-LTD₄ and the membrane preparation (100-200 µg protein) in a final volume of 250 µl. The incubation was carried out at 20°C for 30 minutes. At 20°C, binding increased linearly with protein concentration, reached equilibrium in 20 minutes, was saturable, and reversible upon additions of unlabelled LTD₄. Separation of bound from free ³H-LTD₄ was performed by rapid filtration on GF/C glass fiber filters and washing with two 4 ml aliquots of Tyrode solutions containing 0.1% BSA. Radioactivity remaining on the filters was measured in 10 ml of Aquasol. Specific binding was defined as that displaced by 10⁻⁶M unlabelled LTD₄ and was 95% of total binding.

[1] = test system: LTD₄-Induced Bronchoconstriction; test: Leukotriene-Induced Bronchoconstriction in Guinea Pigs - in vivo leukotriene D₄ (LTD) antagonist test, intravenous and oral testing; set-up: LTD₄-Induced Bronchoconstriction (ID₅₀) i.v. / LTD₄-Induced Bronchoconstriction (ID₅₀) p.o.: unit not given here; details: for Duration 10 mg/kg p.o. 4 hr.: inhibition with LTD challenge 4 hr. after administration; for Duration 10 mg/kg p.o. 8 hr.: inhibition with LTD challenge 8 hr. after administration; for inhibition at 10 mg/kg / inhibition at 1 mg/kg: Cavia porcellus; for inhibition at 10 mg/kg: 2 h, two hours prior to LTD challenge (25 µg/kg i.v.); for Duration 10 mg/kg p.o. 4 hr. / Duration 10 mg/kg p.o. 8 hr. / inhibition at 10 mg/kg / Duration 10 mg/kg p.o. 18 hr.: 10 mg/kg p.o.; for inhibition at 1 mg/kg: iv, 1 mg/kg i.v., 1 minute before LTD challenge (25 µg/kg i.v.), change in tracheal pressure; for LTD₄-Induced Bronchoconstriction (ID₅₀) i.v.: intravenous route; for LTD₄-Induced Bronchoconstriction (ID₅₀) i.v. / LTD₄-Induced Bronchoconstriction (ID₅₀) p.o.: increasing doses, value in parentheses; for LTD₄-Induced Bronchoconstriction (ID₅₀) p.o.: oral route, two hours prior to challenge; for Duration 10 mg/kg p.o. 18 hr.: inhibition with LTD challenge 18 hr. after administration
Description: Leukotriene-Induced Bronchoconstriction in Guinea Pigs - In vivo leukotriene D₄ (LTD) antagonist test
Intravenous and Oral Testing
Male guinea pigs (Hartley strain Charles River) weighing 300-500 g were anesthetized with urethane (∼2 g/kg) intraperitoneally and a polyethylene cannula was inserted into the jugular vein for intravenous drug administration. Tracheal pressure (cm of H₂0) was recorded from a Statham pressure transducer (P 32 AA). Propranolol was administered 5 minutes prior to challenge with LTD. Two minutes later spontaneous breathing was arrested with succinylcholine chloride (1.2 mg/kg) administered intravenously and the animals were ventilated with a Harvard (Model #680) small animal respirator set a 40 breaths/min and 4.0 cc stroke volume. Control vehicle or test drug was administered through the cannula into the jugular vein 1 minute before the animals were challenged intravenously with a maximum constrictory dose of LTD (25 µg/kg) given intravenously. The change in tracheal pressure was averaged for control and drug-treated animals and percent inhibition was calculated. For determination of oral activity, animals were dosed with test compound or vehicle two hours prior to challenge with LTD (25 µg/kg. i.v.).
The relative potency (ID₅₀ values) of test compounds administered by the intravenous and oral route was determined by administering increasing doses of test compound. For determination of the time course of inhibition for various compounds, the time between administration of compound and challenge with LTD was varied. The time course of activity was calculated as the time when inhibition decreased to 40%.

SMILES | IC50 (Leukotriene D₄ Receptor) [nM] | Duration 10 mg/kg p.o. 4 hr. [1] | Duration 10 mg/kg p.o. 8 hr. [1] | inhibition at 10 mg/kg [1] [%] | inhibition at 1 mg/kg [1] [%] | LTD₄-Induced Bronchoconstriction (ID₅₀) i.v. [1] | LTD₄-Induced Bronchoconstriction (ID₅₀) p.o. [1] | Duration 10 mg/kg p.o. 18 hr. [1]
CCC(CC)(CC(=O)Nc1cccc(/C=C/c2nc(C3CCC3)cs2)c1)C(=O)O [(E)-4-[[3-[2-(4-cyclobutyl-2-thiazolyl)ethenyl]phenyl]amino]-2,2-diethyl-4-oxobutanoic acid] | 15 | 100±0 | 98±1 | 99 ± 1 | 98 | 0.13 | 0.12 | 
O=C(O)CCC(=O)Nc1cccc(/C=C/c2nc(C3CC3)cs2)c1 [(E)-4-[[3-[2-(4-cyclopropyl-2-thiazolyl)ethenyl]phenyl]amino]-4-oxobutanoic acid] | 4000 |  |  |  | 15 ± 4 |  |  | 
CCC(CC)(CC(=O)Nc1cccc(/C=C/c2nc(C3CC3)cs2)c1)C(=O)O [(E)-4-[[3-[2-(4-cyclopropyl-2-thiazolyl)ethenyl]phenyl]amino]-2,2-diethyl-4-oxobutanoic acid] | 20 | 99±1 | 95±1 | 98 ± 1 | 94 ± 2 | 0.18 | 1.1 | 61±6
CCC(CC)(CC(=O)Nc1cccc(/C=C/c2nc(C3CCCC3)cs2)c1)C(=O)O [(E)-4-[[3-[2-(4-cyclopentyl-2-thiazolyl)ethenyl]phenyl]amino]-2,2-diethyl-4-oxobutanoic acid] | 60 | 99+1 | 98+1 | 97 ± 1 | 99 ± 1 | 0.08 | 0.34 | 70±7
CCC(CC)(CC(=O)Nc1cccc(/C=C/c2nc(C3CCCCC3)cs2)c1)C(=O)O [(E)-4-[[3-[2-(4-cyclohexyl-2-thiazolyl)ethenyl]phenyl]amino]-2,2-diethyl-4-oxobutanoic acid] | 80 | 69±12 | 81±9 | 87 ± 6 | 96 ± 2 | 0.31 | 0.66 | 38+4
CC(CC(=O)Nc1cccc(/C=C/c2nc(C3CCC3)cs2)c1)C(=O)O (centres unmarked) [(E)-4-[[3-(2-(4-cyclobutyl-2-thiazolyl)ethenyl]phenyl]amino]-2-methyl-4-oxobutanoic acid] | 110 |  |  |  |  | (0.61) |  | 
